The record followed here is ChEMBL document CHEMBL1201862, “PubChem BioAssay data set” (2004).

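Five compound concentrations were applied to cells in 96-well plates for 48 hours; endpoints were derived by simple linear interpolation of the resulting dose-response curve. GI50: concentration for 50% inhibition of growth.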 Active and inactive are the calls of the source. Rule as the data show it: active = GI50 up to about 1.1 µM and inactive = higher. A value given as a limit tells only on which side of the number the result lay.

Test systems include Hs-578T; MOLT-4; OVCAR-3; SF-295; OVCAR-5; A549; DU-145; Malme-3M; SW-620; UO-31; CCRF-CEM; MDA-MB-435; RPMI-8226; SK-OV-3; A498; SF-539; SK-MEL-28; UACC-62; NCI-H23.
Holding throughout (test): growth of human tumour cells (NCI), 48 h

As to `O=C1NC(=O)C(c2c[nH]c3ccccc23)=C1c1cnc[nH]1`, the GI50 in the assay with Hs-578T is 64.3 µM (inactive); in the assay on MOLT-4, 8.47 µM (inactive); with OVCAR-3, 82 µM (inactive); with SF-295, > 100 µM (inactive); in the assay with OVCAR-5, > 100 µM (inactive); in the assay on A549, > 100 µM (inactive). Moreover, the GI50 with DU-145 was > 100 µM (inactive); in the assay with Malme-3M, > 100 µM (inactive); in the assay with SW-620 it was 57.3 µM (inactive); in the assay on UO-31 it was 70.6 µM (inactive); with CCRF-CEM, 47.3 µM (inactive); with MDA-MB-435 it was 75.3 µM (inactive). Moreover, the GI50 in the assay with RPMI-8226 was 49 µM (inactive); in the assay with SK-OV-3, > 100 µM (inactive); in the assay on A498 it was > 100 µM (inactive); with SF-539 it was 32.9 µM (inactive); in the assay with SK-MEL-28, > 100 µM (inactive).
For the compound `C=CCN1C(N)=C(C#N)C(C#N)(C#N)C1CCC` (configuration not stated), the GI50 in the assay with Hs-578T, in the assay with MOLT-4, in the assay with OVCAR-3, with SF-295, with OVCAR-5 and in the assay on A549 was > 100 µM (inactive) throughout. In addition, the GI50 was > 100 µM (inactive) in the assay on DU-145; > 100 µM (inactive) with Malme-3M; > 100 µM (inactive) in the assay with UACC-62; > 100 µM (inactive) with SW-620; 75.2 µM (inactive) in the assay on UO-31; > 100 µM (inactive) in the assay with CCRF-CEM. For the same compound, the GI50 in the assay with MDA-MB-435, in the assay on NCI-H23, in the assay on RPMI-8226, with SK-OV-3, in the assay with A498 and in the assay with SF-539 was > 100 µM (inactive) each time.
Consider `COC(=O)C1=C(C(=O)OC)SC2(S1)C(C(=O)OC)=C(C(=O)OC)Sc1c2ss/c1=N/C(C)(C)C`, for which the GI50 is 4.32 µM (inactive) in the assay on Hs-578T; 0.417 µM (active) in the assay with MOLT-4; 1.67 µM (inactive) in the assay on OVCAR-3; 14.1 µM (inactive) in the assay with SF-295; 1.87 µM (inactive) in the assay on OVCAR-5; 2.43 µM (inactive) with A549. Moreover, the GI50 with DU-145 is 0.877 µM (active); in the assay with Malme-3M it was 2.18 µM (inactive); in the assay on UACC-62, 1.56 µM (inactive); in the assay with SW-620, 0.622 µM (active); in the assay with UO-31 it was 1.92 µM (inactive); in the assay with CCRF-CEM, 0.345 µM (active). Further, the GI50 with MDA-MB-435 is 1.55 µM (inactive); in the assay on NCI-H23 it was 2.23 µM (inactive); in the assay on SK-OV-3 it was 5.18 µM (inactive); in the assay with A498 it was 1.92 µM (inactive); in the assay on SF-539 it was 1.27 µM (inactive); in the assay with SK-MEL-28 it was 2.07 µM (inactive).
Consider `FC(F)(F)c1ccc2c(c1)nc(Cc1ccc(Cl)c(Cl)c1)n2CC1CCCN2CCCCC12` (configuration not stated), for which the GI50 with Hs-578T is 10.9 µM (inactive); with MOLT-4, 37.4 µM (inactive); with OVCAR-3, 20 µM (inactive); with SF-295 it was 22.9 µM (inactive); with OVCAR-5, 17.4 µM (inactive); in the assay on A549 it was 18.1 µM (inactive). Besides, the GI50 in the assay with DU-145 is 50.6 µM (inactive); with Malme-3M, 13.6 µM (inactive); with UACC-62, 15.9 µM (inactive); in the assay with SW-620, 34.8 µM (inactive); with UO-31, 0.169 µM (active); in the assay with MDA-MB-435, 30.4 µM (inactive). In addition, the GI50 was 57 µM (inactive) in the assay with RPMI-8226; 31.3 µM (inactive) in the assay on SK-OV-3; 25.4 µM (inactive) in the assay on A498; 18.9 µM (inactive) with SF-539; 21.1 µM (inactive) in the assay on SK-MEL-28.
As for `O=C1/C(=C/c2ccc(Cl)cc2)NC(=S)N1CN1CCOCC1`, the GI50 with Hs-578T, in the assay on MOLT-4, with OVCAR-3, in the assay with SF-295, in the assay with OVCAR-5 and in the assay with A549 was > 100 µM (inactive) in each case. Besides, the GI50 in the assay on DU-145 was > 100 µM (inactive); with Malme-3M it was > 100 µM (inactive); in the assay with UACC-62 it was > 100 µM (inactive); in the assay on SW-620 it was > 100 µM (inactive); in the assay with UO-31, > 100 µM (inactive); with CCRF-CEM it was 74 µM (inactive). Moreover, the GI50 with MDA-MB-435 was > 100 µM (inactive); in the assay on NCI-H23, > 100 µM (inactive); in the assay on RPMI-8226 it was > 100 µM (inactive); in the assay with SK-OV-3, > 100 µM (inactive); in the assay with A498 it was 57.3 µM (inactive); with SK-MEL-28, > 100 µM (inactive).
As to `O=c1oc2c(ccc3c(O)cccc32)c2c1CCCC2`, the GI50 in the assay with Hs-578T is 7.46 µM (inactive); in the assay with MOLT-4, > 100 µM (inactive); in the assay on OVCAR-3 it was > 100 µM (inactive); in the assay with SF-295, 14.5 µM (inactive); in the assay with OVCAR-5 it was > 100 µM (inactive); with A549, 72.3 µM (inactive). The GI50 is > 100 µM (inactive) in the assay with DU-145; 68.9 µM (inactive) in the assay with Malme-3M; 4.71 µM (inactive) in the assay on UACC-62; > 100 µM (inactive) in the assay with SW-620; 21.1 µM (inactive) with UO-31; > 100 µM (inactive) in the assay with CCRF-CEM. The GI50 in the assay with MDA-MB-435 is > 100 µM (inactive); in the assay with NCI-H23, 26.9 µM (inactive); with RPMI-8226 it was > 100 µM (inactive); in the assay with A498, 27.7 µM (inactive); with SF-539, 22.2 µM (inactive); in the assay with SK-MEL-28 it was > 100 µM (inactive).
For the compound `CCn1c2ccccc2c2cc(/N=N\c3ccc(C#N)cc3)ccc21`, the GI50 in the assay on Hs-578T is 42.1 µM (inactive); with MOLT-4, > 100 µM (inactive); in the assay on OVCAR-3, > 100 µM (inactive); with SF-295, 32.1 µM (inactive); in the assay with OVCAR-5, 31.6 µM (inactive); in the assay on A549, 26.9 µM (inactive). For the same compound, the GI50 was 62.7 µM (inactive) with DU-145; 18.7 µM (inactive) in the assay on Malme-3M; 61.4 µM (inactive) in the assay on UACC-62; > 100 µM (inactive) in the assay on SW-620; 75.7 µM (inactive) in the assay on UO-31; > 100 µM (inactive) with CCRF-CEM. Moreover, the GI50 with MDA-MB-435 is > 100 µM (inactive); in the assay with NCI-H23, 23.5 µM (inactive); in the assay on SK-OV-3, 40.8 µM (inactive); with A498, 25.8 µM (inactive); with SF-539, 32.8 µM (inactive); with SK-MEL-28, > 100 µM (inactive).
As for `COc1ccc(Nc2nc3ccccc3nc2C(=O)O)cc1`, the GI50 in the assay with Hs-578T is 16 µM (inactive); in the assay with MOLT-4, 84.1 µM (inactive); with OVCAR-3, 65.9 µM (inactive); in the assay with SF-295, 61.7 µM (inactive); in the assay with OVCAR-5 it was > 100 µM (inactive); in the assay on A549 it was > 100 µM (inactive). Further, the GI50 was 76.7 µM (inactive) with DU-145; > 100 µM (inactive) with Malme-3M; > 100 µM (inactive) in the assay on UACC-62; 37.6 µM (inactive) in the assay on SW-620; 40 µM (inactive) in the assay on UO-31; 44 µM (inactive) in the assay on CCRF-CEM. The GI50 with MDA-MB-435 is > 100 µM (inactive); in the assay on NCI-H23, 66.7 µM (inactive); in the assay on SK-OV-3 it was 9.04 µM (inactive); in the assay on A498, > 100 µM (inactive); with SF-539, > 100 µM (inactive); in the assay on SK-MEL-28, 68.4 µM (inactive).
In the case of `CCN(CC)CCO/N=C1\CC[C@H]2[C@@H]3CCc4cc(OC)ccc4[C@H]3CC[C@]12C`, the GI50 in the assay with Hs-578T was 2.31 µM (inactive); in the assay on MOLT-4 it was 1.44 µM (inactive); with OVCAR-3 it was 4.25 µM (inactive); in the assay on SF-295, 1.83 µM (inactive); in the assay on OVCAR-5, 3.17 µM (inactive); with A549, 2.84 µM (inactive). Moreover, the GI50 in the assay on DU-145 was 4.76 µM (inactive); with Malme-3M, 1.82 µM (inactive); with UACC-62 it was 0.82 µM (active); in the assay with SW-620 it was 1.72 µM (inactive); in the assay on UO-31 it was 2.94 µM (inactive); in the assay with CCRF-CEM it was 1.22 µM (inactive). Besides, the GI50 with MDA-MB-435 was 0.632 µM (active); in the assay with NCI-H23, 5.09 µM (inactive); in the assay with RPMI-8226 it was 1.67 µM (inactive); in the assay on A498, 3.18 µM (inactive); in the assay on SF-539, 1.97 µM (inactive); in the assay with SK-MEL-28 it was 0.628 µM (active).
On to `NC(=O)Cn1c(=O)oc2cc(C(=O)CN3CCOCC3)ccc21`, for which the GI50 in the assay on Hs-578T, in the assay with MOLT-4, in the assay on OVCAR-3, in the assay on SF-295, in the assay on OVCAR-5 and in the assay on DU-145 was > 100 µM (inactive) in each case. Besides, the GI50 in the assay with Malme-3M, with SW-620, in the assay on CCRF-CEM, in the assay with MDA-MB-435, with RPMI-8226 and with SK-OV-3 was > 100 µM (inactive) each time. Further, the GI50 in the assay with A498, with SF-539 and in the assay on SK-MEL-28 was > 100 µM (inactive) throughout.
Turning to `O=C1c2cc(Cl)ccc2-n2c(noc2=O)C2CSCN12` (configuration not stated), the GI50 in the assay with Hs-578T, in the assay with MOLT-4, in the assay with OVCAR-3, in the assay with SF-295, in the assay with OVCAR-5 and with A549 was > 100 µM (inactive) each time. The GI50 with DU-145, in the assay on Malme-3M, with UACC-62, in the assay on SW-620, with UO-31 and in the assay on CCRF-CEM was > 100 µM (inactive) throughout. Further, the GI50 in the assay with MDA-MB-435, in the assay with RPMI-8226, in the assay with SK-OV-3, in the assay on A498 and in the assay on SK-MEL-28 was > 100 µM (inactive) each time.
